Holding throughout (assay type): biochemical
The test system of assay [1] is Thermus sp. T351 esterase E100. Kind of assay: Inhibition by reaction components on the hydrolysis of p-nitrophenylproprionate by E100. As to the method:
Measurement of E100 Enzyme Activity--Esterase activity is measured by monitoring the hydrolysis of p-nitrophenylproprionate (pNP), or in some cases MUB. Each substrate is dissolved in acetonitrile and added to the reaction mixture (100 μM final concentration) which contain 50 mM Tris HCl pH 8.5 adjusted for temperature dependent pH variation. Reactions are thermally equilibrated at 37° C. for 5 minutes prior to initiation of the reaction by addition of 10 μL of enzyme sample, while control reactions substituted equivalent amounts of BSA. The reaction is monitored spectrophotometrically at 405 nm ε=17 mM^-1 cm^-1 for pNP and 360 nm ε=7.9 mM^-1 cm^-1 for MUB.
The rates of enzyme catalyzed hydrolysis are corrected for the spontaneous hydrolysis of the substrate. Protein concentrations are determined by either the absorbance at 280 nm or by Lowery assay. Crude activity is determined by a colorimetric assay based on the hydrolysis of 5-bromo-4-chloro-3-indoyl esters suspended in a 0.7% agar matrix on microtiter plates. A 0.1 mg/ml solution of the indolyl derivative is dissolved in a minimal volume of acetonitrile and added to a warm solution of 0.7% agar containing 0.1M phosphate buffer pH 7.5. 10 μL of this solution is distributed to microtiter plates which, when cooled, could be used with as much as 100 μL of enzyme sample and incubated at temperatures from ambient to >65° C.

Assay [2] relates to Thermus sp. T351 esterase E101.
In assay [3] the test system is Thermus sp. T351 esterase E100. Briefly: Kinetic analysis of E100: concentration-dependent initial rates of nitrophenyl proprionate hydrolysis. The note with it: p-NP as substrate, pH 8.5, 50 mM Tris-HCl, 37° C. As to the method:
FIG. 6. Kinetic analysis of E100.
Determination of Kinetic Characteristics--Kinetic characteristics are determined by measuring the concentration dependent initial rates of enzyme catalyzed hydrolysis of nitrophenyl proprionate. Reactions are run at pH 8.5 in 50 mM Tris-HCl buffer equilibrated to 37° C. and initiated by addition of enzyme. Rates are determined from the absorbance changes due to formation of product nitrophenol at 405 nm. Rates are corrected for the spontaneous hydrolysis of substrate during the course of the reaction. Concentration vs. rate data are analyzed by both double reciprocal plots and by HanesWolff plots to determine Km, Vmax and Vmax/Km.

For the molecule `OCCS` [BME, β-mercaptoethanol], the “Relative Rate” value in assay [1] (additive 10 mM, None = 100, substrate p-nitrophenylproprionate) worked out at 99%.
In the case of `O=C(O)CN(CCN(CC(=O)O)CC(=O)O)CC(=O)O` [EDTA], in assay [1] (pH 8.5, 1000 µM), the “Relative Rate” value is recorded as 96.
`O=S(=O)(F)Cc1ccccc1` [PMSF]: in assay [2], the “Inhibition of E101 (in words)” value is given as “inhibited”. Moreover, the “Relative Rate” value in assay [1] (additive 0.1 mM, None = 100, substrate p-nitrophenylproprionate) is 0%.
As usually defined, the Km is the substrate concentration at which the rate is half of its maximum. On to `CCC(=O)Oc1ccc([N+](=O)[O-])cc1` [p-NP, p-nitrophenylproprionate], for which the Vmax in assay [3] is 1.8×10^-5 Mmin^-1. The Km in assay [3] (Lineweaver-Burke and Eadie-Hofstee analysis) amounted to 72 µM.
For the molecule `Cc1ccc(S(=O)(=O)F)cc1` [tosyl fluoride], in assay [1], the “Inhibition of E100 (in words)” value is reported as “effectively inhibited”.

Source of the values: patent US6218163A, “Stable biocatalysts for ester hydrolysis” (Thermogen, Inc., priority 1996, dated 2001).
